Molecules are shown by their SMILES. Where only a bound is given, the exact number is not on record here.

Results on six molecules are retold here after BindingDB's records for doi:10.1021/jm0303857 (Johnson & Johnson Pharmaceutical, 2005).

In one experiment the target is Prothrombin (Homo sapiens, UniProt P00734). Nature of the experiment: Enzyme Inhibition Assay. Here is the method:
Thrombin-catalyzed hydrolysis rates were measured spectrophotometrically using human alpha-thrombin, a chromogenic substrate in aqueous buffer, and a microplate reader. […] The IC50 values were determined by fixing the enzyme and substrate concentrations and varying the inhibitor concentration. Ki values were determined by fixing the enzyme and inhibitor concentrations and varying the substrate concentration. Michaelis-Menton kinetics was applied to the initial reaction slopes using the program K.Cat (Bio Metallics Inc.).

Another experiment deals with T1, Serine protease 1 (Bos taurus, UniProt P00760).
T1 sequence (P00760 whole entry): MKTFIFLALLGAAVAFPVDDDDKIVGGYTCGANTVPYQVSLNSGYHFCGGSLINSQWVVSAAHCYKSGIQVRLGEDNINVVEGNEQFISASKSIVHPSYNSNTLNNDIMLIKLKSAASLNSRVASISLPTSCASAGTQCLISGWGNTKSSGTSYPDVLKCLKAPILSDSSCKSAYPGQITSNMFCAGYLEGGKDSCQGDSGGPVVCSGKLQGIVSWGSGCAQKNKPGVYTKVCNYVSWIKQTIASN
Kind of experiment: Enzyme Inhibition Assay.

The IC50 is the concentration that inhibits the measured activity by half. Lower therefore signals greater potency. Regarding `CN[C@H](Cc1ccccc1)C(=O)N1CCC[C@H]1C(=O)N[C@H](CC(=O)c1nc2ccccc2s1)C1CCC(N)CC1` (stereo partly drawn) [(2S)-N-[(1R)-1-(4-aminocyclohexyl)-3-(1,3-benzothiazol-2-yl)-3-oxopropyl]-1-[(2R)-2-(methylamino)-3-phenylpropanoyl]pyrrolidine-2-carboxamide], the IC50 against Prothrombin was above 100000 nM; at Serine protease 1, 58000 nM.
For `CN[C@H](Cc1ccccc1)C(=O)N1CCC[C@H]1C(=O)N[C@@H](CC(=O)c1nc2ccccc2s1)C1CCC(N)CC1` (stereo partly drawn) [(2S)-N-[(1S)-1-(4-aminocyclohexyl)-3-(1,3-benzothiazol-2-yl)-3-oxopropyl]-1-[(2R)-2-(methylamino)-3-phenylpropanoyl]pyrrolidine-2-carboxamide] the same measures were above 100000 nM and 22000 nM.
Usually Ki stands for a measure of affinity in units of concentration, obtained from inhibition or displacement. Read a low Ki as a stronger hold on the target. At Prothrombin, `CN[C@H](Cc1ccccc1)C(=O)N1CCC[C@H]1C(=O)N[C@H](C(=O)c1nc2ccccc2s1)C1CCC(CN)CC1` (stereo partly drawn) [(2S)-N-[(1S)-1-[4-(aminomethyl)cyclohexyl]-2-(1,3-benzothiazol-2-yl)-2-oxoethyl]-1-[(2R)-2-(methylamino)-3-phenylpropanoyl]pyrrolidine-2-carboxamide] had a half-maximal inhibitory concentration (IC50) of 17000 nM and a Ki of 920 nM. This molecule showed a Ki at Serine protease 1 of 54 nM.
In turn, `CN[C@@H](C(=O)N1CCC[C@H]1C(=O)N[C@@H](CCCN=C(N)N)C(=O)c1nc2ccccc2s1)C1CCCCC1` [(2S)-N-[(2S)-1-(1,3-benzothiazol-2-yl)-5-carbamimidamido-1-oxopentan-2-yl]-1-[(2R)-2-cyclohexyl-2-(methylamino)acetyl]pyrrolidine-2-carboxamide] yielded a concentration for half-maximal inhibition (IC50) against Prothrombin (pH 7.4, 37 °C) of 5.3 nM. In addition, the Ki at Prothrombin (pH 7.4, 37 °C) stood at 0.018 nM; on Serine protease 1, 1.2 nM.
On Prothrombin, `CCS(=O)(=O)N[C@H](Cc1ccccc1)C(=O)N1CCC[C@H]1C(=O)N[C@@H](C(=O)c1nc2ccccc2s1)C1CCC(N)CC1` (stereo partly drawn) [The relative stereochemistry of the cyclohexyl ring is trans] had an IC50 of 460 nM and a Ki of 53 nM. The molecule also returned a Ki at Serine protease 1 of 87 nM.
For `CN[C@H](Cc1ccccc1)C(=O)N1CCC[C@H]1C(=O)N[C@@H](C(=O)c1nc2ccccc2s1)C1CCC(N)CC1` (stereo partly drawn) [The relative stereochemistry of the cyclohexyl ring is trans], in that order: 1900 nM, 110 nM and 330 nM.
